Test results taken from ChEMBL document CHEMBL1129151, “Stereoselective synthesis of lewis-associated trisaccharides as E-selectin inhibitors” (Bioorg Med Chem Lett, 1996).

Key:
E-selectin = biological target: T1, E-selectin (Homo sapiens, UniProt P16581); experiment: In vitro ability to inhibit the adhesion of HL-60 cells to purified recombinant human Selectin E; type: cell-based
T1 sequence (P16581 whole entry): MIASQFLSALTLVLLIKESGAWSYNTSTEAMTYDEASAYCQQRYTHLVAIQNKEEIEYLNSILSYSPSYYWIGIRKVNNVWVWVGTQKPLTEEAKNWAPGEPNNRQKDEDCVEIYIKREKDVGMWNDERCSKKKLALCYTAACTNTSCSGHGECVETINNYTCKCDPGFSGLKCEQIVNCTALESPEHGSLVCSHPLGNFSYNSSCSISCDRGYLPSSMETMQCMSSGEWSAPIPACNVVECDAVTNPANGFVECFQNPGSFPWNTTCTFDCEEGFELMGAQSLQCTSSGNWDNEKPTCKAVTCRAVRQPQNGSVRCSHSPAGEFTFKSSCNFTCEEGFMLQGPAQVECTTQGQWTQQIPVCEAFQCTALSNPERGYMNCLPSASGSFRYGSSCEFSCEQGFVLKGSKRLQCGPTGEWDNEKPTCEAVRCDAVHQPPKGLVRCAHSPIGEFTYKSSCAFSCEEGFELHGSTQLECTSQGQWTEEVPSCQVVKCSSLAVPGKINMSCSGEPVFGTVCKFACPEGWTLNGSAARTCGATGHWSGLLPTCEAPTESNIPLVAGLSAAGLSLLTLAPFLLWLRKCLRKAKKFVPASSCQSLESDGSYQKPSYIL

Mus musculus = experiment: In vivo ability to inhibit lipoteichoic acid (LTA)-induced neutrophil accumulation in murine pleurisy model at a dose of 30 mg/kg upon iv administration; type: functional; details: for inhibition in vivo at 30 mg/kg: Mus musculus, iv; for Inhibition: 30 mg/kg

Row | Compound | IC50 (E-selectin) [mM] | inhibition in vivo at 30 mg/kg (Mus musculus) [%] | Inhibition (Mus musculus) [%]
1 | CCO[C@@H]1O[C@@H](CO)[C@@H](O[C@@H]2O[C@@H](CO)[C@H](O)C(O)[C@@H]2O)C(O[C@@H]2O[C@@H](C)[C@@H](O)[C@H](O)[C@@H]2O)[C@@H]1NC(C)=O (single isomer, unassigned) | > 6.6 | 31 | –
2 | CCO[C@@H]1O[C@@H](CO)[C@@H](O[C@@H]2O[C@H](C)[C@H](O)[C@H](O)[C@@H]2O)[C@H](O[C@@H]2O[C@@H](CO)[C@H](O)[C@H](O)[C@@H]2O)[C@@H]1NC(C)=O (stereo in doubt; 1) | > 6.6 | – | 37
3 | CCO[C@@H]1O[C@@H](CO)[C@@H](O[C@@H]2O[C@@H](C)[C@H](O)[C@H](O)[C@@H]2O)[C@H](O[C@@H]2O[C@@H](CO)[C@H](O)[C@H](O)[C@@H]2O)[C@@H]1NC(=O)c1ccc2ccccc2c1 (stereo in doubt; 2) | > 6.6 | 49 | –

Now from value to molecule, other results behind:

Row | IC50 (E-selectin) [mM] | Compound | inhibition in vivo at 30 mg/kg (Mus musculus) [%] | Inhibition (Mus musculus) [%]
4 | > 6.6 | CCO[C@@H]1O[C@@H](CO)[C@@H](O[C@@H]2O[C@@H](CO)[C@H](O)C(O)[C@@H]2O)C(O[C@@H]2O[C@@H](C)[C@@H](O)[C@H](O)[C@@H]2O)[C@@H]1NC(=O)c1ccc2ccccc2c1 (single isomer, unassigned) | 3 | –
5 | 1.4 | CCO[C@@H]1O[C@@H](CO)[C@@H](O[C@@H]2O[C@H](C)[C@H](O)[C@H](O)[C@@H]2O)[C@H](O[C@@H]2O[C@@H](CO)[C@H](O)[C@H](O)[C@@H]2O)[C@@H]1NC(C)=O (stereo in doubt; 3) | 51 | –
6 | 2 | CCO[C@@H]1O[C@@H](CO)[C@@H](O[C@@H]2O[C@@H](C)[C@H](O)[C@H](O)[C@@H]2O)[C@H](O[C@@H]2O[C@@H](CO)[C@H](O)[C@H](O)[C@@H]2O)[C@@H]1NC(=O)c1ccc2ccccc2c1 (stereo in doubt; 4) | – | 62
